Like-named read-outs stand apart in the source and are kept apart here. Marks after values point to notes of the source that are not given here.
Legend:
metastatic melanoma = settings: immune therapy; cited from earlier work
B16-F10 lung metastases = test: B16-F10 melanoma lung metastasis model (tail vein injection) in Kunming mice; type: in vivo; settings: DTIC 2.5 mg/kg
From the text: DMEM, fetal bovine serum, PBS, trypsin-EDTA, DMSO, Tris-HCl buffer with pH 7.6 for rinsing, 0.05% trypsin, rLZ-8, and DTIC.
After the mice were put to death, lungs of the dead mice were dissected out and the number of black spots on surfaces of the lungs, formed by an aggregation of metastasis cell, was counted, so as to calculate the inhibition rate of the drug against the growth of the lung metastasis as: inhibition rate=(an average metastasis number of the negative contrast group−an average metastasis number of the drug administrated group)/the average metastasis number of the negative contrast group×100%. A time and the number of the dead mouse in each experiment group were recorded in detail, especially during administrating the drug continuously, until the negative contrast group was completely dead; and then, the survival states of the mice in the experiment groups and the contrast groups were analyzed. A survival rate was calculated according to the number of the dead mice in the other groups when all the mice of the negative contrast group were dead, based on a formula that survival rate=(a total number of the mice−the number of the dead mice)/the total number of the mice.

[1] = DTIC 2.5 mg/kg tail i.v., administration for 28 days
[2] = DTIC 2.5 mg/kg, administration for 56 days
[3] = DTIC 2.5 mg/kg, dead mice/animal number

Experimental for B16F10 orthotopic tumor: The mice were transplanted with a melanoma cells line B16-F10.
The mice melanoma cells B16-F10 were cultured in the DMEM containing 10% fetal bovine serum, at 37° C. in the CO2 thermostat incubator. 200 μl of B16-F10 cell suspension (containing 1×10^7 cells) was slowly subcutaneously injected into a dorsal-ventral side of the mouse through 1 ml syringe, so as to establish a model of mice transplanted with tumors. […] The rLZ-8 was injected once per day; the DTIC was continuously tail-intravenously injected for 5 days and injected for a second time after 3 weeks. During the experiment, living states of the mice were observed; the mice were weighed once every 7 days; blood samples were taken from tail veins of the mice every 2 weeks; volumes of the tumors, subcutaneously injected into the mice, were measured every 2 days; for each group, the tumors were dissected at an end of the experiment and weighed on the balance, with weights recorded. According to a formula that a tumor growth inhibition rate=(an average weight of the tumors of the physiological saline group−an average weight of the tumors of the drug administrated groups)/the average weight of the tumors of the physiological saline group, the inhibition rate of the rLZ-8 upon the growth of the orthotopic tumor was calculated.

ipilimumab: anti-CTLA-4 antibody, immune therapy for metastatic melanoma
Positive reaction rate (metastatic melanoma): about 10.9%

CN(C)/N=N/c1[nH]cnc1C(N)=O [DTIC, Dacarbazine, reference compound]
Tumor volume (B16F10 orthotopic tumor; [1]): 0.19 ± 0.09** mm^3
Tumor weight (B16F10 orthotopic tumor; [1]): 0.23 ± 0.12 g
Tumor growth inhibition rate (B16F10 orthotopic tumor; DTIC 2.5 mg/kg, administration for 28 days): 81.26 ± 0.27^ %
Tumor growth inhibition rate (B16F10 orthotopic tumor; [2]): 64.42 ± 0.41^ %
Tumor volume (B16F10 orthotopic tumor; [2]): 0.73 ± 0.21* mm^3
Tumor weight (B16F10 orthotopic tumor; [2]): 0.87 ± 0.26 g
Mortality rate (administration for 28 days) (B16F10 orthotopic tumor; [3]): 0/10
Mortality rate (administration for 56 days) (B16F10 orthotopic tumor; [3]): 4/10
Body leukocyte number (B16F10 orthotopic tumor; tumor-bearing mice, tail vein blood, anti-tumor treatment experiment (28/56 days)): greatly decreased the body leukocyte number
Survival rate when all mice of the negative contrast group were dead (B16-F10 lung metastases; 87th / 95th day after injecting the tumors): 10%
Tumor metastases inhibition rate (B16-F10 lung metastases; administration for 28 days): 32.04±1.27%
Tumor metastases inhibition rate (B16-F10 lung metastases; administration for 56 days): 58.43 ± 3.21%
